From patent publication US20090163490A1, “Pyrrolopyrimidine Derivatives Used As HSP90 Inhibitors” (VERNALIS (R&D) LTD., priority 2006, published 2009)

What follows are compounds tested against T1, human full-length HSP90 (Homo sapiens, UniProt P08238) (assay: Fluorescence polarization (FP) binding assay). Settings: competitive displacement of fluorescein-labelled probe from human full-length HSP90; activity range; read-out: ACTIVITY* (Activity in the FP binding assay).
T1 construct: E. coli expressed human full-length HSP90 protein, purified >95%; made in house; host or cells: E. coli
T1 sequence (P08238 whole entry): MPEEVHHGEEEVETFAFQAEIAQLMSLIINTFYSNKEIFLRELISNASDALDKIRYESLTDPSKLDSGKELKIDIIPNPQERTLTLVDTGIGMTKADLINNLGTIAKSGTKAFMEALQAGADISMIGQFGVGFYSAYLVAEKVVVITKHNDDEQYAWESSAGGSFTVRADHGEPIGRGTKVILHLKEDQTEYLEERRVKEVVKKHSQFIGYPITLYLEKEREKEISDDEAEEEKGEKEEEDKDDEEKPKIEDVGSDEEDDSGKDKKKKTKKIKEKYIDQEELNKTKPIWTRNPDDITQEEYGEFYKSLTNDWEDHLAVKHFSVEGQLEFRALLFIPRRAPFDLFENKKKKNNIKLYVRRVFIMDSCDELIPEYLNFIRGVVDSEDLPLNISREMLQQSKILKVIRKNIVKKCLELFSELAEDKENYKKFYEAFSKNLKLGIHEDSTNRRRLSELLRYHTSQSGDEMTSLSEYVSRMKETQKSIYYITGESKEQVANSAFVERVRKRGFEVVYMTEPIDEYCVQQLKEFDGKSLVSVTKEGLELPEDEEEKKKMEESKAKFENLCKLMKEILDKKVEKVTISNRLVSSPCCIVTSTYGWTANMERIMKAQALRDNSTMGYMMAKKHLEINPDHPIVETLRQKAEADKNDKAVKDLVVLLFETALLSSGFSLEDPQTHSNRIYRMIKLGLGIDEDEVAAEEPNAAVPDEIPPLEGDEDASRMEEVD
From the text: Fluorescence Polarization Assay
Fluorescence polarization {also known as fluorescence anisotropy} measures the rotation of a fluorescing species in solution, where the larger molecule the more polarized the fluorescence emission. When the fluorophore is excited with polarized light, the emitted light is also polarized. The molecular size is proportional to the polarization of the fluorescence emission.
The fluoroscein-labelled probe—
binds to HSP90 {full-length human, full-length yeast or N-terminal domain HSP90} and the anisotropy {rotation of the probe:protein complex} is measured.
Test compound is added to the assay plate, left to equilibrate and the anisotropy measured again. Any change in anisotropy is due to competitive binding of compound to HSP90, thereby releasing probe.
Stored at room temperature. • 3) BSA (bovine serum albumen) 10 mg/ml (New England Biolabs # B9001S) • 4) 20 mM probe in 100% DMSO stock concentration. Stored in the dark at RT. Working concentration is 200 nM diluted in AR water and stored at 4° C.
• 1) Add 100 μl×buffer to wells 1A and 12A(=FP BLNK) • 2) Prepare assay mix—all reagents are kept on ice with a lid on the bucket as the probe is light-sensitive.
• 3) Aliquot 100 μl assay mix to all other wells • 4) Seal plate and leave in dark at room temp for 20 minutes to equilibrate
This gives 2.5 mM {50×} stock cpd−assuming cpds 20 mM. • 4) Repeat for wells A2 to A10. Control in columns 11 and 12. • 5) Transfer 5 μl from row A to row B—not column 12. Mix well. • 6) Transfer 5 μl from row B to row C. […] Add 2 μl of 100 mM standard cpd to wells B12-H12 {is positive control} • 13) The Z′ factor is calculated from zero controls and positive wells.

How did the IC50 turn out when `COc1cc(Cl)c(-c2nc(OCCCN3CCCC3=O)nc3[nH]cc(C#N)c23)cc1OC` [Example 57] was run?
The IC50 was < 500 nM.

For `COc1cc(Cl)c(-c2nc(SC(C)C)nc3[nH]cc(C#N)c23)cc1OCCN1CCC(F)(F)CC1` [Example 76], which IC50 is on record?
Its IC50 is < 500 nM.

`CCN(CC)CCOc1nc(-c2ccc(OC)c(OC)c2)c2c(C#N)c[nH]c2n1` [Example 53] was tested. Which IC50 did it give?
Its IC50 is 500 to 10000 nM.

How did the IC50 turn out when `COc1cc(Cl)c(-c2nc(SC)nc3[nH]cc(C#N)c23)cc1OCCN1CCC(F)(F)CC1` [Example 64] was run?
The IC50 was < 500 nM.

Which IC50 does the source give for `N#Cc1c[nH]c2nc(OCCN3CCC(F)(F)CC3)nc(-c3cc(OCc4ccccc4)c(Cl)cc3Cl)c12` [Example 52] here?
The IC50 was 500 to 10000 nM.

With `COc1cc(Cl)c(-c2nc(SC(C)CN3CCC(F)(F)C3)nc3[nH]cc(C#N)c23)cc1OC` (centres unmarked) [Example 83] as the compound, how does the IC50 read?
Its IC50 is < 500 nM.

Which IC50 does the source give for `COc1cc(Cl)c(-c2nc(SC(C)C(=O)O)nc3[nH]cc(C#N)c23)cc1OCCN1CCC(F)(F)C1` (centres unmarked) [Example 89] here?
Its IC50 is < 500 nM.

Which IC50 does the source give for `COc1cc(Cl)c(-c2nc(Sc3ccccc3)nc3[nH]cc(C#N)c23)cc1OC` [Example 84] here?
Its IC50 is < 500 nM.

How did the IC50 turn out when `COc1cc(-c2nc(SC)nc3[nH]cc(C#N)c23)ccc1C#N` [Example 55] was run?
Its IC50 is 500 to 10000 nM.

For `COc1cc(Cl)c(-c2nc(Sc3nccs3)nc3[nH]cc(C#N)c23)cc1OC` [Example 85], which IC50 is on record?
The IC50 was < 500 nM.

Which IC50 does the source give for `COc1cc(Cl)c(-c2nc(SC(C)(C)C)nc3[nH]cc(C#N)c23)cc1OCCN1CC[C@@H](F)C1` [Example 78] here?
Its IC50 is < 500 nM.

For `COc1cc(Cl)c(-c2nc(SC)nc3[nH]cc(C#N)c23)cc1OCCN1CCCC(F)(F)C1` [Example 66], which IC50 is on record?
The IC50 was < 500 nM.

With `COc1cc(Cl)c(-c2nc(SC)nc3[nH]cc(C#N)c23)cc1OCCN1CCC(F)(F)C1` [Example 74] as the compound, how does the IC50 read?
Its IC50 is < 500 nM.

With `COc1cc(Cl)c(-c2nc(Oc3ccccc3)nc3[nH]cc(C#N)c23)cc1OC` [Example 86] as the compound, how does the IC50 read?
The IC50 was < 500 nM.

`COc1cc(Cl)c(-c2nc(OCCN3CCC(F)CC3)nc3[nH]cc(C#N)c23)cc1OC` [Example 71] was tested. Which IC50 did it give?
Its IC50 is < 500 nM.

Which IC50 does the source give for `CCN(CC)CCNc1nc(-c2cc(OC)c(OC)cc2Cl)c2c(C#N)c[nH]c2n1` [Example 69] here?
Its IC50 is 500 to 10000 nM.

Same assay, conditions: competitive displacement of fluorescein-labelled probe from human full-length HSP90; activity range; read-out: activity in the fluorescence polarization assay

`CSc1nc(-c2ccccc2)c2c(C#N)c[nH]c2n1` [Example 2, 2-methylsulfanyl-4-phenyl-7H-pyrrolo[2,3-d]pyrimidine-5-carbonitrile] was tested. Which IC50 did it give?
Its IC50 is < 500 nM.

How did the IC50 turn out when `COc1cc(-c2nc(OCCN3CCCC3=O)nc3[nH]cc(C#N)c23)c(Cl)cc1Cl` [Example 25, 4-(2,4-Dichloro-5-methoxy-phenyl)-2-[2-(2-oxo-pyrrolidin-1-yl)-ethoxy]-7H-pyrrolo[2,3-d]pyrimidine-5-carbonitrile] was run?
The IC50 was < 500 nM.

With `Cc1cc(F)ccc1-c1nc(SCCN2CCOCC2)nc2[nH]cc(C#N)c12` [Example 21, 4-(4-Fluoro-2-methyl-phenyl)-2-(2-morpholin-4-yl-ethylsulfanyl)-7H-pyrrolo[2,3-d]pyrimidine-5-carbonitrile] as the compound, how does the IC50 read?
Its IC50 is < 500 nM.

Which IC50 does the source give for `COc1cc(Cl)c(-c2nc([S+](C)[O-])nc3[nH]cc(C#N)c23)cc1OC` (centres unmarked) [Example 47] here?
The IC50 was 500 to 10000 nM.

With `Cc1cc(F)ccc1-c1nc(OCCN2CCCC2)nc2[nH]cc(C#N)c12` [Example 13, 4-(4-Fluoro-2-methyl-phenyl)-2-(2-pyrrolidin-1-yl-ethoxy)-7H-pyrrolo[2,3-d]pyrimidine-5-carbonitrile] as the compound, how does the IC50 read?
The IC50 was > 10000 nM.

For `CSc1nc(C(=O)N2Cc3ccccc3C2)c2c(C#N)c[nH]c2n1` [Example 93, 4-(1,3-Dihydro-isoindole-2-carbonyl)-2-methylsulfanyl-7H-pyrrolo[2,3-d]pyrimidine-5-carbonitrile], which IC50 is on record?
The IC50 was 500 to 10000 nM.

For `CSc1nc(-c2ccc(C)cc2C)c2c(C(F)(F)F)c[nH]c2n1` [Example 10, 4-(2,4-Dimethyl-phenyl)-2-methylsulfanyl-5-trifluoromethyl-7H-pyrrolo[2,3-d]pyrimidine], which IC50 is on record?
Its IC50 is 500 to 10000 nM.

With `CSc1nc(-c2ccc(Cl)cc2Cl)c2c(C#N)c[nH]c2n1` [Example 41, 4-(Dichloro-phenyl)-2-methylsulfanyl-7H-pyrrolo[2,3-d]pyrimidine-5-carbonitrile] as the compound, how does the IC50 read?
The IC50 was < 500 nM.

Which IC50 does the source give for `CCN(CC)CCOc1cc(-c2nc(SC)nc3[nH]cc(C#N)c23)c(Cl)cc1Cl` [Example 27, 4-[2,4-Dichloro-5-(2-diethylamino-ethoxy)-phenyl]-2-methylsulfanyl-7H-pyrrolo[2,3-d]pyrimidine-5-carbonitrile] here?
Its IC50 is < 500 nM.

Which IC50 does the source give for `COc1nc(-c2ccc(F)cc2C)c2c(C#N)c[nH]c2n1` [Example 12, 4-(4-Fluoro-2-methyl-phenyl)-2-methoxy-7H-pyrrolo[2,3-d]pyrimidine-5-carbonitrile] here?
The IC50 was 500 to 10000 nM.

With `CSc1nc(-c2ccc(C)cc2C)c2c(Br)c[nH]c2n1` [Example 5, 5-Bromo-4-(2,4-dimethyl-phenyl)-2-methylsulfanyl-7H-pyrrolo[2,3-d]pyrimidine] as the compound, how does the IC50 read?
The IC50 was 500 to 10000 nM.

For `CCN(CC)CCOc1cccc(-c2nc(SC)nc3[nH]cc(C#N)c23)c1` [Example 7], which IC50 is on record?
The IC50 was 500 to 10000 nM.

Which IC50 does the source give for `CSc1nc(-c2cc(OCCN3CCCC3)c(Cl)cc2Cl)c2c(C#N)c[nH]c2n1` [Example 26, 4-[2,4-Dichloro-5-(2-pyrrolidin-1-yl-ethoxy)-phenyl]-2-methylsulfanyl-7H-pyrrolo[2,3-d]pyrimidine-5-carbonitrile] here?
Its IC50 is < 500 nM.

Which IC50 does the source give for `Cc1cc(F)ccc1-c1nc(OCCN2CCCC2=O)nc2[nH]cc(C#N)c12` [Example 15, 4-(4-Fluoro-2-methyl-phenyl)-2-[2-(2-oxo-pyrrolidin-1-yl)-ethoxy]-7H-pyrrolo[2,3-d]pyrimidine-5-carbonitrile] here?
The IC50 was 500 to 10000 nM.

How did the IC50 turn out when `CSc1nc(-c2ccc3c(c2)OCCO3)c2c(C#N)c[nH]c2n1` [Example 43, 4-(2,3-Dihydro-benzo[1,4]dioxin-6-yl)-2-methylsulfanyl-7H-pyrrolo[2,3-d]pyrimidine-5-carbonitrile] was run?
Its IC50 is > 10000 nM.

With `Cc1ccc(-c2ncnc3[nH]cc(C(N)=O)c23)c(C)c1` [Example 39, 4-(2,4-Dimethyl-phenyl)-7H-pyrrolo[2,3-d]pyrimidine-5-carboxylic Acid Amide] as the compound, how does the IC50 read?
Its IC50 is > 10000 nM.

With `Cc1ccc(-c2nc(Cl)nc3[nH]cc(C#N)c23)c(C)c1` [Example 8, 2-Chloro-4-(2,4-dimethyl-phenyl)-7H-pyrrolo[2,3-d]pyrimidine-5-carbonitrile] as the compound, how does the IC50 read?
The IC50 was < 500 nM.

For `CCN(CC)CCOc1cc(-c2nc(SC(C)C)nc3[nH]cc(C#N)c23)c(Cl)cc1OC` [Example 45, 4-[2-Chloro-5-(2-diethylamino-ethoxy)-4-methoxy-phenyl]-2-isopropylsulfanyl-7H-pyrrolo[2,3-d]pyrimidine-5-carbonitrile], which IC50 is on record?
Its IC50 is < 500 nM.

With `COc1ccc(-c2nc(SC)nc3[nH]cc(C#N)c23)cc1OC` [Example 44, 4-(Dimethoxy-phenyl)-2-methylsulfanyl-7H-pyrrolo[2,3-d]pyrimidine-5-carbonitrile] as the compound, how does the IC50 read?
The IC50 was < 500 nM.

For `COc1cc(Cl)c(-c2nc(OCCN3CC[C@H](F)C3)nc3[nH]cc(C#N)c23)cc1OC` [Example 35], which IC50 is on record?
Its IC50 is < 500 nM.

Which IC50 does the source give for `COc1cc(Cl)c(-c2nc(SC)nc3[nH]cc(C#N)c23)cc1OC` [Example 29, 4-(2-Chloro-4,5-dimethoxy-phenyl)-2-methylsulfanyl-7H-pyrrolo[2,3-d]pyrimidine-5-carbonitrile] here?
The IC50 was < 500 nM.

Which IC50 does the source give for `CCN(CC)CC[S+]([O-])c1nc(-c2cc(OC)c(OC)cc2Cl)c2c(C#N)c[nH]c2n1` (centres unmarked) [Example 46, 4-(2-Chloro-4,5-dimethoxy-phenyl)-2-(2-diethylamino-ethanesulfinyl)-7H-pyrrolo[2,3-d]pyrimidine-5-carbonitrile] here?
The IC50 was 500 to 10000 nM.

With `CCN(CC)CCSc1nc(-c2cc(OC)c(Cl)cc2Cl)c2c(C#N)c[nH]c2n1` [Example 23, 4-(2,4-Dichloro-5-methoxy-phenyl)-2-(2-diethylamino-ethylsulfanyl)-7H-pyrrolo[2,3-d]pyrimidine-5-carbonitrile] as the compound, how does the IC50 read?
Its IC50 is < 500 nM.

With `Cc1ccc(-c2ncnc3[nH]cc(C#N)c23)c(C)c1` [Example 9, 4-(2,4-dimethyl-phenyl)-7H-pyrrolo[2,3-d]pyrimidine-5-carbonitrile] as the compound, how does the IC50 read?
The IC50 was 500 to 10000 nM.

With `COc1cc(-c2nc(SC)nc3[nH]cc(C#N)c23)c(Cl)cc1Cl` [Example 22, 4-(2,4-Dichloro-5-methoxy-phenyl)-2-methylsulfanyl-7H-pyrrolo[2,3-d]pyrimidine-5-carbonitrile] as the compound, how does the IC50 read?
The IC50 was < 500 nM.
